Assay results taken from US12331093B2, “Fusion polypeptides for metabolic disorders” (BEIJING QL BIOPHARMACEUTICAL CO., LTD., priority 2021, dated 2025).

What was measured:
[1] = Food intake and body weight reduction in DIO mice; assay type: in vivo, C57BL/6 mice; settings: 10 nmol/kg QD
Method: 22 week old DIO male C57BL/6 mice (˜50 g) were injected once every other day (Q2D) subcutaneously with designated GLP-1 polypeptide conjugates (i.e., Molecule 012) for 25 days. Food intake and body weight were measured twice a week and fasting blood glucose was measured once a week. Five animals were used for each treatment group. Body weight and fasting blood glucose was monitored for each individual animal, but food intake for each group animals was measured together. Day 1 and Day 25 are first day and last day of molecule dosage. Data are indicated as mean values and standard error (SEM) or pooled values. Statistical analysis was performed by One-way ANOVA. Body weight reduction on Day 25 is calculated by −1*(% BW loss−% BW loss of vehicle group); Cumulative food intake reduction is calculated by −100*(cumulative food intake−cumulative food intake of vehicle)/cumulative food intake of vehicle.

human beta-Klotho = molecular target: T1, human beta-Klotho (Homo sapiens, UniProt Q86Z14); experiment: In vitro FGF21 activity, p-ERK levels in HEK293 cell line overexpressing human beta-Klotho; assay type: cell-based; settings: compared with YH-dual
T1 construct: expressed in transfected cells; host or cells: HEK293 cell line
Method: The in vitro FGF21 activities of the fusion protein were assessed using a HEK293 cell line overexpressing human beta-Klotho. Tested fusion protein conjugates were measured at 400 nM top concentration with 4-fold serial dilutions in the presence of 1% HSA. After cells were treated with fusion protein conjugates for 12 mins, p-ERK levels were measured by p-ERK kit (Cisbio, 64ERKPEH).
The activity of each fusion protein was represented by EC50, derived from non-linear regression analysis.

[2] = Metabolic parameters in DIO animal model, 21 days; assay type: in vivo, C57BL/6 mice; settings: DIO mice, QD subcutaneously, FIG. 4B
Method: 16 week old DIO male C57BL/6 mice (35˜40 g) were injected once daily (QD) subcutaneously with designated GLP-1/FGF21 conjugates (i.e., MLC #9, MLC #14, MLC #16 and MLC #17) for 21 days. Food intake and body weight were measured once everyday and non-fasting blood glucose was measured once every three days. Five animals were used for each treatment group. Body weight and blood glucose was monitored for each individual animal, but food intake for each group of animals was measured together. Day 1 and Day 21 are first day and last day respectively of the treatment. Terminal blood was collected and EDTA-K3 plasma was prepared and frozen at −80° C. for biomarker measurement (LDL-C, TC, TG, ALT, insulin, adiponectin). Liver and adipose tissue were also collected and frozen in liquid nitrogen and store at −80° C. Data are indicated as mean values and standard error (SEM) or pooled values. Statistical analysis was performed by One-way ANOVA. Body weight reduction on Day 21 is calculated by −1*(% BW loss−% BW loss of vehicle group); Cumulative food intake reduction is calculated by −100*(cumulative food intake−cumulative food intake of vehicle)/cumulative food intake of vehicle.

| Substance | Body weight reduction (% reduction compared to vehicle) (Day 11) [1] [%] | Cumulative food intake reduction (% reduction compared to vehicle) (Day 11) [1] [%] | FGF21 efficacy (FIGS. 2A and 2B) (human beta-Klotho) | non-fasting glucose level [2] [mmol/L] |
| --- | --- | --- | --- | --- |
| Control#2: GLP1(del7-8, 22E, 36G)-(GAQP)5-ALB8-(GAQP)10-FGF21 (121Q, 168L, 171G, 180E), SEQ ID NO: 72, GLP1 dead [reference compound] | 21.7 | 19.1 | – | – |
| Control#6: GLP1(del7-8, 22E, 36G)-(GAQP)5-ALB8-(GAQP)-FGF21 (121Q, 168L, 171G, 180E), SEQ ID NO: 78, GLP1 dead [reference compound] | 24.6 | 13.1 | significantly higher FGF21 efficacy than YH-dual | – |
| Semaglutide [reference compound] | – | – | – | 7.5 to 10 |
